According to ChEMBL document CHEMBL3576851, “Bacterial Sliding Clamp Inhibitors that Mimic the Sequential Binding Mechanism of Endogenous Linear Motifs” (J Med Chem, 2015):
Calls of active or inactive are those of the source. The calls are words filed in the database; no cut-off is given here.

Columns and labels:
Beta sliding clamp [1] = molecular target: T1, Beta sliding clamp (Escherichia coli (strain K12), UniProt P0A988); test: Inhibition of Escherichia coli DNA sliding clamp protein using N-fluorescein (FAM)-QLDLF-OH tracer by fluorescence polarization assay
T1 sequence (P0A988 whole entry): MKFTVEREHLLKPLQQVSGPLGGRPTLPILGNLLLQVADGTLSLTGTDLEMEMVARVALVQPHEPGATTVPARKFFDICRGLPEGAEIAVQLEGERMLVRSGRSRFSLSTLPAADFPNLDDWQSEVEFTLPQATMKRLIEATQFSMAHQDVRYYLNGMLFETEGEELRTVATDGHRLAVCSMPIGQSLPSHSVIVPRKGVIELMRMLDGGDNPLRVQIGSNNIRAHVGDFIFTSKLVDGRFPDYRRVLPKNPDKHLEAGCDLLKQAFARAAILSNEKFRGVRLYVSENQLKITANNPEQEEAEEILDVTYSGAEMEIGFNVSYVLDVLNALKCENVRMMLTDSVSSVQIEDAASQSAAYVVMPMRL

[2] = molecular target: Beta sliding clamp (Escherichia coli (strain K12)) (UniProt P0A988); test: Inhibition of Escherichia coli DNA sliding clamp protein assessed as reduction in DNA replication at >125 uM in presence of circular ssDNA, RNA primer template, SSB, Pol3-alpha subunit, reconstituted gamma3delta-delta' clamp loader complex by SYBR gold dye based agarose gel electrophoresis method
Beta sliding clamp (Escherichia coli (strain K12)), sequence (P0A988 whole entry): as above

Beta sliding clamp [3] = molecular target: T1, Beta sliding clamp; test: Binding affinity to Escherichia coli DNA sliding clamp protein at 298K by isothermal titration calorimetry
[4] = molecular target: Beta sliding clamp (Escherichia coli (strain K12)) (UniProt P0A988); test: Inhibition of Escherichia coli DNA sliding clamp protein assessed as reduction in DNA replication at 31 uM in presence of circular ssDNA, RNA primer template, SSB, Pol3-alpha subunit, reconstituted gamma3delta-delta' clamp loader complex by SYBR gold dye based agarose gel electrophoresis method

SMILES	IC50 (Beta sliding clamp [1]) [µM]	Ki (Beta sliding clamp [1]) [µM]	inhibition [2]	Kd (Beta sliding clamp [3]) [µM]	inhibition [4]
CCNC(=O)Cn1c2c(c3cc(Cl)ccc31)CC[C@@H](C(=O)O)C2	347	193			
O=C(O)[C@@H]1CCc2c([nH]c3ccc(I)cc23)C1	175	97			
NC(=O)Cn1c2c(c3cc(Br)ccc31)CC[C@@H](C(=O)O)C2	246	137	Active		
O=C(O)[C@H]1CCc2c([nH]c3ccc(Br)cc23)C1	328	182			
NC(=O)Cn1c2c(c3cc(Br)ccc31)CC[C@H](C(=O)O)C2	285	158			
O=C(Cn1c2c(c3cc(Br)ccc31)CC[C@@H](C(=O)O)C2)N[C@H](Cc1ccccc1)C(=O)O	30	17		13	Active
CC(C)(C)OC(=O)N1CCC(CNC(=O)Cn2c3c(c4cc(Br)ccc42)CC[C@@H](C(=O)O)C3)CC1	150	83			
O=C(Cn1c2c(c3cc(Br)ccc31)CC[C@@H](C(=O)O)C2)NCC1CCNCC1	208	116			
NC(=O)CN1CCC(NC(=O)Cn2c3c(c4cc(Br)ccc42)CC[C@@H](C(=O)O)C3)CC1	307	171			
O=C(Cn1c2c(c3cc(Br)ccc31)CC[C@@H](C(=O)O)C2)N[C@@H](Cc1ccccc1)C(=O)O	27	15		9	Active
NC(=O)CNC(=O)Cn1c2c(c3cc(Br)ccc31)CC[C@@H](C(=O)O)C2	171	95			
NC(=O)Cn1c2c(c3cc(Cl)ccc31)CC[C@H](C(=O)O)C2	888	493			
NC(=O)C1CCc2c([nH]c3ccc(Cl)cc23)C1 (racemic)	> 1000				
NC(=O)c1ccc(CNC(=O)Cn2c3c(c4cc(Br)ccc42)CC[C@@H](C(=O)O)C3)cc1	64	36			
NC(=O)Cc1ccc(NC(=O)Cn2c3c(c4cc(Cl)ccc42)CC[C@@H](C(=O)O)C3)cc1	362	201			
O=C(O)CNC(=O)Cn1c2c(c3cc(Cl)ccc31)CC[C@@H](C(=O)O)C2	85	47		24	
O=C(O)[C@@H]1CCc2c([nH]c3ccc(F)cc23)C1	817	454			
OCC1CCc2c([nH]c3ccc(Cl)cc23)C1 (racemic)	> 1000				
O=C(O)CNC(=O)Cn1c2c(c3cc(Br)ccc31)CC[C@@H](C(=O)O)C2	20	11		14	Active
NC(=O)Cn1c2c(c3cc(Cl)ccc31)CC[C@@H](C(=O)O)C2	368	204	Active		
O=C(O)C1CCc2c([nH]c3ccc(Cl)cc23)C1 (racemic)	299	166			
O=C(O)[C@@H]1CCc2c([nH]c3ccc(Br)cc23)C1	157	87	Active		
COC(=O)C1CCc2c([nH]c3ccc(Cl)cc23)C1 (racemic)	> 1000				
CC(C)C[C@H](NC(=O)Cn1c2c(c3cc(Br)ccc31)CC[C@@H](C(=O)O)C2)C(=O)O	48	27			
O=C(O)[C@@H]1CCc2c([nH]c3ccc(Cl)cc23)C1	134	74	Active		
CC(C)(C)OC(=O)NCCCC[C@@H](NC(=O)Cn1c2c(c3cc(Br)ccc31)CC[C@@H](C(=O)O)C2)C(=O)O	115	64			
O=C(O)[C@H]1CCc2c([nH]c3ccc(Cl)cc23)C1	442	246			
